Values quoted from earlier work as cited in US20110020841A1, “CENTROSOME AMPLIFICATION AS A BIOSENSOR FOR DNA DAMAGE” (National University of Ireland, Galway, priority 2006, published 2011).

System: Chk1 kinase
Conditions: inhibition of Chk1 kinase with the drug; vertebrate cells; reference 11

CN[C@@H]1C[C@H]2O[C@@](C)([C@@H]1OC)n1c3ccccc3c3c4c(c5c6ccccc6n2c5c31)C(=O)N[C@@H]4O [UCN-01]
DNA damage-induced centrosome amplification: suppresses DNA damage-centrosome amplification
